Usually IC50 stands for the midpoint of a concentration-inhibition curve.

The source of these data is patent publication US10508109B2 (priority 2015, dated 2019).

Counter-ions that a name gives are not always drawn. Like-named read-outs stand apart in the source and are kept apart here.

One assay concerns A549. The assay is described as follows: Cell-based assay, anti-proliferative activity (Cell Counting Kit-8, 72 hours). To be noted: Homo sapiens, A549 cells, read-out: IC50 (μM) A549. The gist of the method: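 After compound exposure of cells in 96-well plates, growth was measured colorimetrically and converted into IC50 values.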
On the technique in general: Formazan colour is commonly taken as a measure of viable cells.

A further assay deals with PC14. The description is as above. To be noted: Homo sapiens, PC-14, PC14 cells, read-out: IC50 (μM) PC14. The gist of the method: (§1)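 Anti-proliferative IC50 obtained from 96-well cultures treated 72 h with inhibitor at 0–100 micro-M, growth assessed by a CCK-8 colorimetric readout.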
Another assay has as its system HFL1. The description is as above. As to conditions: Homo sapiens, HFL1 cells, read-out: IC50 (μM) HFL1. In outline: as §1
The next assay has as its system HCT-116. The description is as above. As to conditions: Homo sapiens, HCT-116 cells, read-out: IC50 (μM) HCT-116. The gist of the method:
as §1

The test system of a further assay is CCD-18Co. The description is as above. To be noted: Homo sapiens, CCD-18Co cells, read-out: IC50 (μM) CCD-18Co. In outline:
as §1

Another assay deals with SUV39H2 (Homo sapiens (Human), UniProt Q9H5I1). To be noted: read-out: IC50 (μM) Suv 39H2 assay; enzyme assay.
Chain of SUV39H2 (Q9H5I1 whole entry): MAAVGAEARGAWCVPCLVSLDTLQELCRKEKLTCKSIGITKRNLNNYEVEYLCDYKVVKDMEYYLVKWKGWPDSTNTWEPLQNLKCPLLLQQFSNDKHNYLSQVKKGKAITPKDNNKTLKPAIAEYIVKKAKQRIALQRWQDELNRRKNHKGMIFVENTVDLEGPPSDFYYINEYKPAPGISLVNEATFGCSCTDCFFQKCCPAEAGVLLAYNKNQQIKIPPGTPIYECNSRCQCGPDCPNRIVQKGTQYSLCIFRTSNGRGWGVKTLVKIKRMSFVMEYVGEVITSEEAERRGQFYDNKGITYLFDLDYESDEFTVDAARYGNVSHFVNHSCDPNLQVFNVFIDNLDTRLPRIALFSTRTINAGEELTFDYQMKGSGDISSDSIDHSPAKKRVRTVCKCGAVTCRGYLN

Consider `COc1cc(OC)c(-c2cn3ccc(N4CCC(CCNC(=O)OC(C)(C)C)CC4)nc3n2)cc1Cl` [Example 61, tert-butyl (2-{1-[2-(5-chloro-2,4-dimethoxyphenyl)imidazo[1,2-a]pyrimidin-7-yl]piperidin-4-yl}-ethyl)carbamate], for which the IC50 in the assay with A549 (Cell Counting Kit-8, 72 hours) was determined as 4.5 µM; in the assay on PC14 (Cell Counting Kit-8, 72 hours), 1.7 µM; with HFL1 (Cell Counting Kit-8, 72 hours), 3.4 µM; with HCT-116 (Cell Counting Kit-8, 72 hours), 4.1 µM; with CCD-18Co (Cell Counting Kit-8, 72 hours), 4.3 µM; at SUV39H2, 0.00831 µM.
For the molecule `COc1cc(OC)c(-c2cn3ccc(N4CCC(O)CC4)cc3n2)cc1Cl` [Example 231, 1-(2-(5-chloro-2,4-dimethoxyphenyl)imidazo[1,2-a]pyridine-7-yl)piperidin-4-ol], the IC50 in the assay with A549 (72 hours, Cell Counting Kit-8) came out at 10 µM; with PC14 (72 hours, Cell Counting Kit-8), 3.9 µM; in the assay on HFL1 (72 hours, Cell Counting Kit-8) it was 6.7 µM; with HCT-116 (72 hours, Cell Counting Kit-8), 10 µM; in the assay on CCD-18Co (72 hours, Cell Counting Kit-8), 9.1 µM; at SUV39H2 it was 0.00488 µM.
In the case of `COc1cc(OC)c(-c2cn3ccc(N4CCC(NC(C)=O)C4)cc3n2)cc1Cl` (stereo not drawn) [Example 37, N-(1-(2-(5-chloro-2,4-dimethoxyphenyl)imidazo[1,2-a]pyridin-7-yl)pyrrolidin-3-yl)acetamide], the IC50 was 14 µM in the assay on A549 (Cell Counting Kit-8, 72 hours); 8.2 µM in the assay with PC14 (Cell Counting Kit-8, 72 hours); 5.4 µM in the assay on HFL1 (Cell Counting Kit-8, 72 hours); 12 µM in the assay with HCT-116 (Cell Counting Kit-8, 72 hours); 11 µM in the assay with CCD-18Co (Cell Counting Kit-8, 72 hours); 0.00435 µM on SUV39H2.
`COc1cc(OC)c(-c2cn3ccc(NC(=O)[C@@H]4CCCN4C)cc3n2)cc1Cl` [Example 263, (S)—N-(2-(5-chloro-2,4-dimethoxyphenyl)imidazo[1,2-a]pyridin-7-yl)-1-methylpyrrolidine-2-carboxamide]: the IC50 was determined as 1.8 µM in the assay on A549 (72 hours, Cell Counting Kit-8); 1.7 µM in the assay on PC14 (72 hours, Cell Counting Kit-8); 1.8 µM with HFL1 (72 hours, Cell Counting Kit-8); 0.99 µM in the assay on HCT-116 (72 hours, Cell Counting Kit-8); 1.4 µM in the assay with CCD-18Co (72 hours, Cell Counting Kit-8); 0.065 µM on SUV39H2.
Take `COc1cc(OC)c(-c2cn3ccc(N4CCN(CCN5CCCCC5)CC4)cc3n2)cc1Cl` [Example 135, 2-(5-chloro-2,4-dimethoxyphenyl)-7-(4-(2-(piperidin-1-yl)ethyl)piperazin-1-yl)imidazo[1,2-a]pyridine]: the IC50 in the assay on A549 (Cell Counting Kit-8, 72 hours) worked out at 3 µM; in the assay on PC14 (Cell Counting Kit-8, 72 hours), 2.6 µM; with HFL1 (Cell Counting Kit-8, 72 hours), 4.8 µM; in the assay with HCT-116 (Cell Counting Kit-8, 72 hours), 2.4 µM; with CCD-18Co (Cell Counting Kit-8, 72 hours), 2.8 µM; at SUV39H2, 0.0128 µM.
As for `COc1cc(OCCCN(C)C)c(-c2cn3ccc(N4CCN(S(=O)(=O)C5CCCC5)CC4)nc3n2)cc1Cl` [Example 227, 3-(4-chloro-2-(7-(4-(cyclopentylsulfonyl)piperazin-1-yl)imidazo[1,2-a]-pyrimidin-2-yl)-5-methoxyphenoxy)-N,N-dimethylpropan-1-amine], the half-maximal inhibitory concentration (IC50) was 7 µM in the assay on A549 (72 hours, Cell Counting Kit-8); 5.4 µM in the assay on PC14 (72 hours, Cell Counting Kit-8); 5.7 µM with HFL1 (72 hours, Cell Counting Kit-8); 5.2 µM with HCT-116 (72 hours, Cell Counting Kit-8); 6.2 µM in the assay on CCD-18Co (72 hours, Cell Counting Kit-8); 0.0382 µM at SUV39H2.
As for `COc1cc(OC)c(-c2cn3cc(NCCN)c(N4CCOCC4)cc3n2)cc1Cl` [Example 89, N^1-(2-(5-chloro-2,4-dimethoxyphenyl)-7-morpholinoimidazo[1,2-a]-pyridin-6-yl)ethane-1,2-diamine], the IC50 turned out to be 3 µM in the assay on A549 (Cell Counting Kit-8, 72 hours); 2.7 µM with PC14 (Cell Counting Kit-8, 72 hours); 1.6 µM in the assay with HFL1 (Cell Counting Kit-8, 72 hours); 4.4 µM with HCT-116 (Cell Counting Kit-8, 72 hours); 3 µM in the assay with CCD-18Co (Cell Counting Kit-8, 72 hours); 0.00335 µM at SUV39H2.
Take `COc1cc(OCC2CC2)c(-c2cn3ccc(N4CCCC4)cc3n2)cc1Cl` [Example 82, 2-(5-chloro-2-(cyclopropylmethoxy)-4-methoxyphenyl)-7-(pyrrolidin-1-yl)imidazo[1,2-a]pyridine]: the IC50 stood at 3.5 µM with A549 (Cell Counting Kit-8, 72 hours); 4.7 µM in the assay with PC14 (Cell Counting Kit-8, 72 hours); 2 µM in the assay with HFL1 (Cell Counting Kit-8, 72 hours); 3.2 µM in the assay on HCT-116 (Cell Counting Kit-8, 72 hours); 3.8 µM in the assay with CCD-18Co (Cell Counting Kit-8, 72 hours); 0.00538 µM at SUV39H2.
For the molecule `COc1cc(OC)c(-c2cn3cc(Br)c(N4CCNCC4)nc3n2)cc1Cl` [Example 220, 6-bromo-2-(5-chloro-2,4-dimethoxyphenyl)-7-(piperazin-1-yl)imidazo[1,2-a]pyrimidine], the IC50 in the assay with A549 (72 hours, Cell Counting Kit-8) came to 2.6 µM; in the assay on PC14 (72 hours, Cell Counting Kit-8), 2.4 µM; in the assay on HFL1 (72 hours, Cell Counting Kit-8) it was 3.1 µM; in the assay with HCT-116 (72 hours, Cell Counting Kit-8) it was 2.4 µM; in the assay on CCD-18Co (72 hours, Cell Counting Kit-8) it was 3.1 µM; at SUV39H2 it was 0.0262 µM.
As for `COc1cc(OC)c(-c2cn3ccc(OC4CCN(c5ccnc(N)n5)CC4)cc3n2)cc1Cl` [Example 284, 4-(4-((2-(5-chloro-2,4-dimethoxyphenyl)imidazo[1,2-a]pyridin-7-yl)oxy)-piperidin-1-yl)pyrimidin-2-amine], the half-inhibitory concentration (IC50) in the assay with A549 (72 hours, Cell Counting Kit-8) amounted to 1.5 µM; in the assay with PC14 (72 hours, Cell Counting Kit-8), 0.98 µM; with HFL1 (72 hours, Cell Counting Kit-8), 1.1 µM; in the assay on HCT-116 (72 hours, Cell Counting Kit-8) it was 0.71 µM; in the assay with CCD-18Co (72 hours, Cell Counting Kit-8), 1.3 µM; at SUV39H2 it was 0.0918 µM.
Regarding `COc1cc(OC)c(-c2cn3ccc(N4CCN(c5nccc(N)n5)CC4)cc3n2)cc1Cl` [Example 286, 2-(4-(2-(5-chloro-2,4-dimethoxyphenyl)imidazo[1,2-a]pyridin-7-yl)piperazin-1-yl)-pyrimidin-4-amine], the half-inhibitory concentration (IC50) in the assay on A549 (72 hours, Cell Counting Kit-8) turned out to be 0.65 µM; with PC14 (72 hours, Cell Counting Kit-8), 0.63 µM; in the assay on HFL1 (72 hours, Cell Counting Kit-8), 0.7 µM; in the assay on HCT-116 (72 hours, Cell Counting Kit-8), 0.56 µM; in the assay with CCD-18Co (72 hours, Cell Counting Kit-8) it was 0.71 µM; on SUV39H2, 0.00881 µM.
With `COc1cc(OC)c(-c2cn3ccc(-c4ccc(C(=O)NCCNCCNC(=O)OC(C)(C)C)cc4)cc3n2)cc1Cl` [Example 269, tert-butyl (2-((2-(4-(2-(5-chloro-2,4-dimethoxyphenyl)imidazo[1,2-a]pyridin-7-yl)benzamido)ethyl)amino)ethyl)carbamate], the half-maximal inhibitory concentration (IC50) in the assay on A549 (72 hours, Cell Counting Kit-8) is 1.2 µM; in the assay with PC14 (72 hours, Cell Counting Kit-8), 0.94 µM; in the assay on HFL1 (72 hours, Cell Counting Kit-8), 1.3 µM; with HCT-116 (72 hours, Cell Counting Kit-8), 0.75 µM; in the assay with CCD-18Co (72 hours, Cell Counting Kit-8), 0.87 µM; at SUV39H2, 0.0408 µM.
Turning to `COc1cc(OCCCN(C)C)c(-c2cn3ccc(N4CCNCC4)cc3n2)cc1Cl` [Example 139, 3-{4-chloro-5-methoxy-2-[7-(piperazin-1-yl)imidazo[1,2-a]pyridin-2-yl]phenoxy}-N,N-dimethylpropan-1-amine], the IC50 with A549 (Cell Counting Kit-8, 72 hours) came out at 1.7 µM; with PC14 (Cell Counting Kit-8, 72 hours) it was 2.1 µM; with HFL1 (Cell Counting Kit-8, 72 hours) it was 1.6 µM; in the assay on HCT-116 (Cell Counting Kit-8, 72 hours), 2.4 µM; with CCD-18Co (Cell Counting Kit-8, 72 hours), 2.5 µM; at SUV39H2, 0.025 µM.
In the case of `COc1cc(OC)c(-c2cn3ccc(N[C@H]4CC[C@H](CN5CCN(S(C)(=O)=O)CC5)CC4)cc3n2)cc1Cl` [Example 289, 2-(5-chloro-2,4-dimethoxyphenyl)-trans-N-(4-((4-(methylsulfonyl)piperazin-1-yl)methyl)cyclohexyl)imidazo-[1,2-a]pyridin-7-amine], the IC50 in the assay on A549 (72 hours, Cell Counting Kit-8) is 0.63 µM; in the assay with PC14 (72 hours, Cell Counting Kit-8), 0.77 µM; in the assay on HFL1 (72 hours, Cell Counting Kit-8), 0.74 µM; in the assay with HCT-116 (72 hours, Cell Counting Kit-8) it was 0.83 µM; in the assay on CCD-18Co (72 hours, Cell Counting Kit-8) it was 0.72 µM; at SUV39H2, 0.028 µM.
On to `COc1cc(OC)c(-c2cn3ccc(N(C)C)cc3n2)cc1Cl` [Example 22, 2-(5-chloro-2,4-dimethoxyphenyl)-N,N-dimethylimidazo[1,2-a]pyridin-7-amine hydrobromide], for which the half-maximal inhibitory concentration (IC50) is 1.6 µM in the assay on A549 (Cell Counting Kit-8, 72 hours); 1.6 µM in the assay on PC14 (Cell Counting Kit-8, 72 hours); 1.7 µM in the assay on HFL1 (Cell Counting Kit-8, 72 hours); 3.3 µM in the assay on HCT-116 (Cell Counting Kit-8, 72 hours); 3.6 µM with CCD-18Co (Cell Counting Kit-8, 72 hours); 0.00515 µM at SUV39H2.
In the case of `COc1cc(OC)c(-c2cn3ccc(C4=CCN(CCN5CCOCC5)CC4)cc3n2)cc1Cl` [Example 144, 4-(2-{4-[2-(5-chloro-2,4-dimethoxyphenyl)imidazo[1,2-a]pyridin-7-yl]-5,6-dihydropyridin-1(2H)-yl}ethyl)morpholine], the IC50 in the assay with A549 (Cell Counting Kit-8, 72 hours) was found to be 3.9 µM; in the assay with PC14 (Cell Counting Kit-8, 72 hours), 1.5 µM; in the assay with HFL1 (Cell Counting Kit-8, 72 hours), 7 µM; in the assay with HCT-116 (Cell Counting Kit-8, 72 hours), 5.9 µM; with CCD-18Co (Cell Counting Kit-8, 72 hours) it was 6.3 µM; on SUV39H2, 0.0191 µM.
As for `COc1cc(OC)c(-c2cn3ccc(N4CCC(NS(=O)(=O)C(F)(F)F)CC4)cc3n2)cc1Cl` [Example 176, N-{1-[2-(5-chloro-2,4-dimethoxyphenyl)imidazo[1,2-a]pyridin-7-yl]piperidin-4-yl}-1,1,1-trifluoromethanesulfonamide], the IC50 with A549 (Cell Counting Kit-8, 72 hours) was 0.51 µM; with PC14 (Cell Counting Kit-8, 72 hours), 0.75 µM; in the assay on HFL1 (Cell Counting Kit-8, 72 hours), 0.36 µM; with HCT-116 (Cell Counting Kit-8, 72 hours), 0.55 µM; in the assay with CCD-18Co (Cell Counting Kit-8, 72 hours), 0.53 µM; at SUV39H2, 0.0641 µM.
